Where two headings read alike, the source gives them in different places.
Legend:
active mouse DPP1 enzyme = active mouse DPP1 enzyme (Mus musculus (Mouse), UniProt P97821); experiment: Mouse DPP1 Enzyme IC50 Assay; type: biochemical
Procedure: Test articles were applied to active mouse DPP1 enzyme (R&D Systems; Minneapolis, MN) in Assay Buffer (50 mM MES pH 5.5, 50 mM NaCl, 5 mM DTT) in a total reaction volume of 125 μL. 25 μL of compound in Assay Buffer plus 5% DMSO was first added to 50 μL of active mouse DPP1 enzyme at a concentration of 62.5 pg/μL and allowed to pre-incubate for 10 minutes at 37° C. after which 50 μL of 1000 μM H-Gly-Arg-AMC substrate (Bachem; St. Torrance, CA) was added, giving final substrate concentration of 400 μM and a final DMSO concentration of 1%. Substrate cleavage was measured for 90 minutes at 37° C., with fluorescence at Excitation/Emission 350/450 nm measured every 5 minutes. DPP1 concentration was interpolated based on its activity relative to a standard curve of recombinant active mouse DPP1 enzyme. IC50 values for each compound were calculated via the XLFit (IDBS Version 5.3.1.3) Add-On to Microsoft Excel using the four parameter fit equation y=(A+((B−A)/(1+((C/x)^D)))), which appears as equation number 205 (4 Parameter Logistic Model or Sigmoidal Dose-Response Model) in XLFit. Default constraints were used for each Parameter. IC50 was defined as the compound concentration at which 50% of enzyme activity was inhibited when compared to the no-compound control.

[1] = target: Recombinant human DPP1 enzyme (Homo sapiens (Human), UniProt P53634); experiment: Human DPP1 Enzyme IC50 Assay; type: biochemical; settings: human DPP1 enzyme; Table 16; read-out: IC50, nM; Human
Chain of Recombinant human DPP1 enzyme (P53634 25-134): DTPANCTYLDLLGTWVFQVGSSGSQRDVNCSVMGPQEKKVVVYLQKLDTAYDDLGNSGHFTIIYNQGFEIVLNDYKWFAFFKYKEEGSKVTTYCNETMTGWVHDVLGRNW
Chain of Recombinant human DPP1 enzyme (P53634 231-394): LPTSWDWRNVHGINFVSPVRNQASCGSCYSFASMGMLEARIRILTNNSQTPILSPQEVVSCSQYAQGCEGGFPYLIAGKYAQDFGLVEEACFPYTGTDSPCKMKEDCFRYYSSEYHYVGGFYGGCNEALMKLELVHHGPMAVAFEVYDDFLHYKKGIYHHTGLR
Chain of Recombinant human DPP1 enzyme (P53634 395-463): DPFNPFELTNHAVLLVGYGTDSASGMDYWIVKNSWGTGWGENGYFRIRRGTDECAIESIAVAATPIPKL
Procedure: Recombinant human DPP1 enzyme (R&D Systems; Minneapolis, MN) was first proteolytically processed into its mature form using recombinant human cathepsin L (R&D Systems) in a buffer consisting of 20 mM citric acid pH 4.5, 150 mM NaCl, 1 mM EDTA and 10 mM DTT. Test articles were applied to activated human DPP1 enzyme in Assay Buffer (25 mM MES pH 6.0, 50 mM NaCl, 5 mM DTT) in a total reaction volume of 125 μL. 25 μL of compound in Assay Buffer plus 5% DMSO was first added to 50 μL of activated human DPP1 enzyme at a concentration of 1 ng/μL and allowed to pre-incubate for 10 minutes at 37° C. after which 50 μL of 1000 μM H-Gly-Arg-AMC substrate (Bachem; St. Torrance, CA) was added, giving final substrate concentration of 400 μM and a final DMSO concentration of 1%. Substrate cleavage was measured for 90 minutes at 37° C., with fluorescence at Excitation/Emission 350/450 nm measured every 5 minutes. DPP1 concentration was interpolated based on its activity relative to a standard curve of activated human recombinant DPP1 enzyme. IC50 values for each compound were calculated via the XLFit (IDBS Version 5.3.1.3) Add-On to Microsoft Excel using the four parameter fit equation y={A+[(B−A)]/[1+((C/x)^D)]}, which appears as equation number 205 (4 Parameter Logistic Model or Sigmoidal Dose-Response Model) in XLFit. Default constraints were used for each Parameter.

[2] = mouse DPP1 enzyme, Table 16, read-out: IC50, nM, Mouse

Chain of active mouse DPP1 enzyme (P97821 25-134): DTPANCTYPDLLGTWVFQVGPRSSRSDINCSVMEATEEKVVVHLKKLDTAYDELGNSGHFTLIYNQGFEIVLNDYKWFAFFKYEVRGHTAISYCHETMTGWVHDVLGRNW
Chain of active mouse DPP1 enzyme (P97821 231-393): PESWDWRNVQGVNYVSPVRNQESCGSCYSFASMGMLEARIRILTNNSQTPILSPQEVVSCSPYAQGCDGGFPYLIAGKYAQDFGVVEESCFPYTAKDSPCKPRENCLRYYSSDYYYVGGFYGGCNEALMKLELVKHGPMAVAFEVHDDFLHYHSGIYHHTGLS
Chain of active mouse DPP1 enzyme (P97821 394-462): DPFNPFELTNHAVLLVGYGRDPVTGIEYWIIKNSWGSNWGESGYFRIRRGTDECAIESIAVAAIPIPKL

Row | Structure (SMILES) | IC50 (active mouse DPP1 enzyme; [2]) [nM] | IC50 [1] [nM] | IC50 (active mouse DPP1 enzyme; figure legends FIG. 12 and 13, read-out: IC50, in vitro inhibition of mouse DPP1) [nM] | IC50 (active mouse DPP1 enzyme; mouse DPP1 enzyme, H-Gly-Arg-AMC substrate 400 μM, Table 13, read-out: IC50) [nM]
1 | N#Cc1ccc(-c2ccc(C[C@@H](C#N)NC(=O)[C@@H]3C[C@H]4C[C@H]4N3)cc2)cc1 | 92.4 | 140 | – | –
2 | N#Cc1ccc(-c2ccc(C[C@@H](C#N)NC(=O)C3C[C@@H]4COC[C@@H]4N3)cc2)cc1 (stereo partly drawn) | – | 2610 | – | –
3 | Cn1c(=O)oc2ccc(-c3ccc(C[C@@H](C#N)NS(N)(=O)=O)cc3)cc21 | > 5000 | > 5000 | – | –
4 | Cn1c(=O)oc2ccc(-c3ccc(C[C@@H](C#N)NC(=O)C4CC5CCN4CC5)cc3)cc21 (stereo partly drawn) | > 5000 | > 5000 | – | –
5 | Cn1c(=O)oc2ccc(-c3ccc(C[C@@H](C#N)NC(=O)C4CCC(N)C4)cc3)cc21 (stereo partly drawn) | > 5000 | > 5000 | – | –
6 | Cn1c(=O)oc2ccc(-c3ccc(C[C@@H](C#N)NC(=O)C4CNCCS(=O)(=O)C4)cc3)cc21 (stereo partly drawn) | 2760 | 4820 | – | –
7 | C=C1Oc2ccc(-c3ccc(C[C@@H](C#N)NC(=O)CC4(N)CCS(=O)(=O)C4)cc3)cc2N1C (stereo partly drawn) | > 5000 | > 5000 | – | –
8 | Cn1c(=O)oc2ccc(-c3ccc(C[C@@H](C#N)NS(=O)(=O)CCN)cc3)cc21 | > 5000 | > 5000 | – | –
9 | CN1COc2ccc(-c3ccc(C[C@@H](C#N)NS(=O)(=O)CCNC4CCCC4)cc3)cc21 | > 5000 | > 5000 | – | –
10 | Cn1c(=O)oc2ccc(-c3ccc(C[C@@H](C#N)NC(=O)C4CC=CCNC4)cc3)cc21 (stereo partly drawn) | 1900 | 1760 | – | –
11 | C=C1Oc2ccc(-c3ccc(C[C@@H](C#N)NC(=O)C4CNC[C@H](O)CO4)cc3)cc2N1C (stereo partly drawn) | 2 | 2.3 | – | –
12 | Cn1c(=O)oc2ccc(-c3ccc(C[C@@H](C#N)NC(=O)C4CNCC(O)C4)cc3)cc21 (stereo partly drawn) | 2170 | 2030 | – | –
13 | C=C1Oc2ccc(-c3ccc(C[C@@H](C#N)NC(=O)C4CC5NCCCC5N4)cc3)cc2N1C (stereo partly drawn) | > 5000 | > 5000 | – | –
14 | Cn1c(=O)oc2ccc(-c3ccc(C[C@@H](C#N)NC(=O)CC(N)C4CC4)cc3)cc21 (stereo partly drawn) | > 5000 | > 5000 | – | –
15 | Cn1c(=O)oc2ccc(-c3ccc(C[C@@H](C#N)NC(=O)C4C=CCNC4)cc3)cc21 (stereo partly drawn) | > 5000 | > 5000 | – | –
16 | Cn1c(=O)oc2ccc(-c3ccc(C[C@@H](C#N)NC(=O)[C@@H]4C[C@H]5OCC[C@H]5N4)cc3)cc21 | > 5000 | > 5000 | – | –
17 | CO[C@H]1CNC[C@@H](C(=O)N[C@H](C#N)Cc2ccc(-c3ccc4oc(=O)n(C)c4c3)cc2)OC1 | 583 | 745 | – | –

Row | Structure (SMILES) | IC50 (active mouse DPP1 enzyme; [2]) [nM] | IC50 [1] [nM] | IC50 (active mouse DPP1 enzyme; figure legends FIG. 12 and 13, read-out: IC50, in vitro inhibition of mouse DPP1) [nM] | IC50 (active mouse DPP1 enzyme; mouse DPP1 enzyme, H-Gly-Arg-AMC substrate 400 μM, Table 13, read-out: IC50) [nM]
18 | Cn1c(=O)oc2ccc(-c3ccc(C[C@@H](C#N)NC(=O)[C@@H]4CNCCCO4)c(F)c3)cc21 | 8.1 | – | – | –
19 | N#Cc1ccc(-c2ccc(C[C@@H](C#N)NC(=O)C3CNC3)cc2)cc1 | 4350 | > 5000 | – | –
20 | [2H]C([2H])([2H])n1c(=O)oc2ccc(-c3ccc(C[C@@H](C#N)NC(=O)C4CNC4)cc3)cc21 | – | 1510 | – | –
21 | Cn1c(=O)oc2ccc(-c3ccc(C[C@@H](C#N)NC(=O)C4CNC4)s3)cc21 | 4930 | > 5000 | – | –
22 | N#Cc1ccc(-c2ccc(C[C@@H](C#N)NC(=O)C3CNC3)s2)cc1 | > 5000 | > 5000 | – | –
23 | [2H]C([2H])([2H])n1c(=O)oc2ccc(-c3ccc(C[C@@H](C#N)NC(=O)C4CNC4)s3)cc21 | – | 4940 | – | –
24 | N#Cc1ccc(-c2ccc(C[C@@H](C#N)NC(=O)C3CNC3)c(F)c2)cc1 | 1850 | 1560 | – | –
25 | Cn1c(=O)oc2ccc(-c3ccc(C[C@@H](C#N)NC(=O)[C@@H]4C[C@@H]5COC[C@@H]5N4)s3)cc21 | 247 | 589 | – | –
26 | N#Cc1ccc(-c2ccc(C[C@@H](C#N)NC(=O)[C@@H]3C[C@@H]4COC[C@@H]4N3)s2)cc1 | 366 | 2270 | – | –
27 | [2H]C([2H])([2H])n1c(=O)oc2ccc(-c3ccc(C[C@@H](C#N)NC(=O)[C@@H]4C[C@@H]5COC[C@@H]5N4)s3)cc21 | – | 664 | – | –
28 | N#Cc1ccc(-c2ccc(C[C@@H](C#N)NC(=O)[C@@H]3C[C@@H]4COC[C@@H]4N3)c(F)c2)cc1 | 107 | 526 | – | –
29 | Cn1c(=O)oc2ccc(-c3ccc(C[C@@H](C#N)NC(=O)C4CCCCC4)cc3)cc21 | > 5000 | > 5000 | – | –
30 | Cn1c(=O)oc2ccc(-c3ccc(C[C@@H](C#N)NC(=O)[C@H]4C[C@@H]5COC[C@@H]5N4)cc3)cc21 | > 5000 | > 5000 | – | –
31 | N#Cc1ccc(-c2ccc(C[C@@H](C#N)NC(=O)[C@H]3C[C@@H]4COC[C@@H]4N3)cc2)cc1 | > 5000 | > 5000 | – | –
32 | C=C1Oc2ccc(-c3ccc(C[C@@H](C#N)NC(=O)CC4(N)CCCS(=O)(=O)C4)cc3)cc2N1C (stereo partly drawn) | – | > 5000 | – | –
33 | Cn1c(=O)oc2ccc(-c3ccc(C[C@@H](C#N)NC(=O)[C@@H]4C[C@@H]5COC[C@@H]5N4)cc3)cc21 [drawing 1156] | – | 940 | – | –

Next, values leading:

Row | IC50 (active mouse DPP1 enzyme; [2]) [nM] | IC50 [1] [nM] | IC50 (active mouse DPP1 enzyme; figure legends FIG. 12 and 13, read-out: IC50, in vitro inhibition of mouse DPP1) [nM] | IC50 (active mouse DPP1 enzyme; mouse DPP1 enzyme, H-Gly-Arg-AMC substrate 400 μM, Table 13, read-out: IC50) [nM] | Structure (SMILES)
34 | > 5000 | > 5000 | – | – | Cn1c(=O)oc2ccc(-c3ccc(C[C@@H](C#N)NC(=O)CC4COCCN4)cc3)cc21 (stereo partly drawn)
35 | > 5000 | > 5000 | – | – | Cn1c(=O)oc2ccc(-c3ccc(C[C@@H](C#N)NC(=O)C4(N)CCS(=O)(=O)C4)cc3)cc21 (stereo partly drawn)
36 | > 5000 | > 5000 | – | – | Cn1c(=O)oc2ccc(-c3ccc(C[C@@H](C#N)NC(=O)C4CS(=O)(=O)CCN4)cc3)cc21 (stereo partly drawn)
37 | > 5000 | > 5000 | – | – | Cn1c(=O)oc2ccc(-c3ccc(C[C@@H](C#N)NC(=O)C4CNCCN4)cc3)cc21 (stereo partly drawn)
38 | > 5000 | > 5000 | – | – | Cn1c(=O)oc2ccc(-c3ccc(CC(C#N)NC(=O)[C@H]4CCNC[C@@H]4N)cc3)cc21 (stereo partly drawn)
39 | 2430 | 1310 | – | – | Cn1c(=O)oc2ccc(-c3ccc(CC(C#N)NC(=O)[C@H]4CCNC[C@H]4N)cc3)cc21 (stereo partly drawn)
40 | 3290 | 2540 | – | – | Cn1c(=O)oc2ccc(-c3ccc(C[C@@H](C#N)NC(=O)CC4(N)CCOC4)cc3)cc21 (stereo partly drawn)
41 | 3160 | 2180 | – | – | Cn1c(=O)oc2ccc(-c3ccc(C[C@@H](C#N)NC(=O)C4(C)CNCCO4)cc3)cc21 (stereo partly drawn)
42 | > 5000 | > 5000 | – | – | Cn1c(=O)oc2ccc(-c3ccc(C[C@@H](C#N)NC(=O)CC4CCCN4)cc3)cc21 (stereo partly drawn)
43 | > 5000 | > 5000 | – | – | Cn1c(=O)oc2ccc(-c3ccc(C[C@@H](C#N)NC(=O)C4CCNCC4)cc3)cc21
44 | 2770 | 3660 | – | – | Cn1c(=O)oc2ccc(-c3ccc(C[C@@H](C#N)NC(=O)C4(CN)CCC4)cc3)cc21
45 | 825 | 1270 | – | – | Cn1c(=O)oc2ccc(-c3ccc(C[C@@H](C#N)NC(=O)C4CNC4)cc3)cc21
46 | > 5000 | > 5000 | – | – | Cn1c(=O)oc2ccc(-c3ccc(C[C@@H](C#N)NC(=O)C4=CS(=O)(=O)CCNC4)cc3)cc21
47 | > 5000 | > 5000 | – | – | Cn1c(=O)oc2ccc(-c3ccc(C[C@@H](C#N)NC(=O)C4CCNC4)cc3)cc21 (stereo partly drawn)
48 | – | 1660 | – | – | Cn1c(=O)oc2ccc(-c3ccc(CC(C#N)NC(=O)C4CNC4)cc3)cc21 (stereo not drawn)
49 | – | 1320 | – | – | C[C@@H]1NCCC[C@@H]1C(=O)N[C@H](C#N)Cc1ccc(-c2ccc3oc(=O)n(C)c3c2)cc1
50 | – | 4480 | – | – | C[C@H]1NCCC[C@H]1C(=O)N[C@H](C#N)Cc1ccc(-c2ccc3oc(=O)n(C)c3c2)cc1
51 | – | 1040 | – | – | Cn1c(=O)oc2ccc(-c3ccc(CC(C#N)NC(=O)[C@@]4(C)CNCCO4)cc3)cc21 (stereo partly drawn)
52 | – | > 5000 | – | – | Cn1c(=O)oc2ccc(-c3ccc(C[C@@H](C#N)NC(=O)[C@]4(C)CNCCO4)cc3)cc21
53 | – | – | 24.3 | 24.3 | Cn1c(=O)oc2ccc(-c3ccc(C[C@@H](C#N)NC(=O)[C@@H]4CNCCCO4)cc3)cc21 [brensocatib, reference compound]
54 | 27 | – | – | – | Cn1c(=O)oc2ccc(-c3ccc(C[C@@H](C#N)NC(=O)[C@@H]4CNCCCO4)cc3)cc21 [drawing 1149]
55 | – | 1220 | – | – | Cn1c(=O)oc2ccc(-c3ccc(C[C@@H](C#N)NC(=O)C4CNCC45CCC5)cc3)cc21 (stereo partly drawn) [drawing 1229]

From patent US20260062420A1, “NOVEL DPP1 INHIBITORS AND USES THEREOF” (Insmed Incorporated, priority 2022, published 2026)
